Measured values from paper PMC8206283, “Three New Quinazoline-Containing Indole Alkaloids From the Marine-Derived Fungus Aspergillus sp. HNMF114” (Frontiers in Microbiology, 2021).

Target: T1, ryanodine receptor from Spodoptera frugiperda (sfRyR) (Spodoptera frugiperda, UniProt A0A4P8L6R5)
T1 construct: gene RyR
Experiment: time-lapse R-CEPIA1er [Ca2+]ER measurement in HEK cells stably expressing sfRyR (positive control)
Format: cell-based

T1 sequence (A0A4P8L6R5 entry or part of it): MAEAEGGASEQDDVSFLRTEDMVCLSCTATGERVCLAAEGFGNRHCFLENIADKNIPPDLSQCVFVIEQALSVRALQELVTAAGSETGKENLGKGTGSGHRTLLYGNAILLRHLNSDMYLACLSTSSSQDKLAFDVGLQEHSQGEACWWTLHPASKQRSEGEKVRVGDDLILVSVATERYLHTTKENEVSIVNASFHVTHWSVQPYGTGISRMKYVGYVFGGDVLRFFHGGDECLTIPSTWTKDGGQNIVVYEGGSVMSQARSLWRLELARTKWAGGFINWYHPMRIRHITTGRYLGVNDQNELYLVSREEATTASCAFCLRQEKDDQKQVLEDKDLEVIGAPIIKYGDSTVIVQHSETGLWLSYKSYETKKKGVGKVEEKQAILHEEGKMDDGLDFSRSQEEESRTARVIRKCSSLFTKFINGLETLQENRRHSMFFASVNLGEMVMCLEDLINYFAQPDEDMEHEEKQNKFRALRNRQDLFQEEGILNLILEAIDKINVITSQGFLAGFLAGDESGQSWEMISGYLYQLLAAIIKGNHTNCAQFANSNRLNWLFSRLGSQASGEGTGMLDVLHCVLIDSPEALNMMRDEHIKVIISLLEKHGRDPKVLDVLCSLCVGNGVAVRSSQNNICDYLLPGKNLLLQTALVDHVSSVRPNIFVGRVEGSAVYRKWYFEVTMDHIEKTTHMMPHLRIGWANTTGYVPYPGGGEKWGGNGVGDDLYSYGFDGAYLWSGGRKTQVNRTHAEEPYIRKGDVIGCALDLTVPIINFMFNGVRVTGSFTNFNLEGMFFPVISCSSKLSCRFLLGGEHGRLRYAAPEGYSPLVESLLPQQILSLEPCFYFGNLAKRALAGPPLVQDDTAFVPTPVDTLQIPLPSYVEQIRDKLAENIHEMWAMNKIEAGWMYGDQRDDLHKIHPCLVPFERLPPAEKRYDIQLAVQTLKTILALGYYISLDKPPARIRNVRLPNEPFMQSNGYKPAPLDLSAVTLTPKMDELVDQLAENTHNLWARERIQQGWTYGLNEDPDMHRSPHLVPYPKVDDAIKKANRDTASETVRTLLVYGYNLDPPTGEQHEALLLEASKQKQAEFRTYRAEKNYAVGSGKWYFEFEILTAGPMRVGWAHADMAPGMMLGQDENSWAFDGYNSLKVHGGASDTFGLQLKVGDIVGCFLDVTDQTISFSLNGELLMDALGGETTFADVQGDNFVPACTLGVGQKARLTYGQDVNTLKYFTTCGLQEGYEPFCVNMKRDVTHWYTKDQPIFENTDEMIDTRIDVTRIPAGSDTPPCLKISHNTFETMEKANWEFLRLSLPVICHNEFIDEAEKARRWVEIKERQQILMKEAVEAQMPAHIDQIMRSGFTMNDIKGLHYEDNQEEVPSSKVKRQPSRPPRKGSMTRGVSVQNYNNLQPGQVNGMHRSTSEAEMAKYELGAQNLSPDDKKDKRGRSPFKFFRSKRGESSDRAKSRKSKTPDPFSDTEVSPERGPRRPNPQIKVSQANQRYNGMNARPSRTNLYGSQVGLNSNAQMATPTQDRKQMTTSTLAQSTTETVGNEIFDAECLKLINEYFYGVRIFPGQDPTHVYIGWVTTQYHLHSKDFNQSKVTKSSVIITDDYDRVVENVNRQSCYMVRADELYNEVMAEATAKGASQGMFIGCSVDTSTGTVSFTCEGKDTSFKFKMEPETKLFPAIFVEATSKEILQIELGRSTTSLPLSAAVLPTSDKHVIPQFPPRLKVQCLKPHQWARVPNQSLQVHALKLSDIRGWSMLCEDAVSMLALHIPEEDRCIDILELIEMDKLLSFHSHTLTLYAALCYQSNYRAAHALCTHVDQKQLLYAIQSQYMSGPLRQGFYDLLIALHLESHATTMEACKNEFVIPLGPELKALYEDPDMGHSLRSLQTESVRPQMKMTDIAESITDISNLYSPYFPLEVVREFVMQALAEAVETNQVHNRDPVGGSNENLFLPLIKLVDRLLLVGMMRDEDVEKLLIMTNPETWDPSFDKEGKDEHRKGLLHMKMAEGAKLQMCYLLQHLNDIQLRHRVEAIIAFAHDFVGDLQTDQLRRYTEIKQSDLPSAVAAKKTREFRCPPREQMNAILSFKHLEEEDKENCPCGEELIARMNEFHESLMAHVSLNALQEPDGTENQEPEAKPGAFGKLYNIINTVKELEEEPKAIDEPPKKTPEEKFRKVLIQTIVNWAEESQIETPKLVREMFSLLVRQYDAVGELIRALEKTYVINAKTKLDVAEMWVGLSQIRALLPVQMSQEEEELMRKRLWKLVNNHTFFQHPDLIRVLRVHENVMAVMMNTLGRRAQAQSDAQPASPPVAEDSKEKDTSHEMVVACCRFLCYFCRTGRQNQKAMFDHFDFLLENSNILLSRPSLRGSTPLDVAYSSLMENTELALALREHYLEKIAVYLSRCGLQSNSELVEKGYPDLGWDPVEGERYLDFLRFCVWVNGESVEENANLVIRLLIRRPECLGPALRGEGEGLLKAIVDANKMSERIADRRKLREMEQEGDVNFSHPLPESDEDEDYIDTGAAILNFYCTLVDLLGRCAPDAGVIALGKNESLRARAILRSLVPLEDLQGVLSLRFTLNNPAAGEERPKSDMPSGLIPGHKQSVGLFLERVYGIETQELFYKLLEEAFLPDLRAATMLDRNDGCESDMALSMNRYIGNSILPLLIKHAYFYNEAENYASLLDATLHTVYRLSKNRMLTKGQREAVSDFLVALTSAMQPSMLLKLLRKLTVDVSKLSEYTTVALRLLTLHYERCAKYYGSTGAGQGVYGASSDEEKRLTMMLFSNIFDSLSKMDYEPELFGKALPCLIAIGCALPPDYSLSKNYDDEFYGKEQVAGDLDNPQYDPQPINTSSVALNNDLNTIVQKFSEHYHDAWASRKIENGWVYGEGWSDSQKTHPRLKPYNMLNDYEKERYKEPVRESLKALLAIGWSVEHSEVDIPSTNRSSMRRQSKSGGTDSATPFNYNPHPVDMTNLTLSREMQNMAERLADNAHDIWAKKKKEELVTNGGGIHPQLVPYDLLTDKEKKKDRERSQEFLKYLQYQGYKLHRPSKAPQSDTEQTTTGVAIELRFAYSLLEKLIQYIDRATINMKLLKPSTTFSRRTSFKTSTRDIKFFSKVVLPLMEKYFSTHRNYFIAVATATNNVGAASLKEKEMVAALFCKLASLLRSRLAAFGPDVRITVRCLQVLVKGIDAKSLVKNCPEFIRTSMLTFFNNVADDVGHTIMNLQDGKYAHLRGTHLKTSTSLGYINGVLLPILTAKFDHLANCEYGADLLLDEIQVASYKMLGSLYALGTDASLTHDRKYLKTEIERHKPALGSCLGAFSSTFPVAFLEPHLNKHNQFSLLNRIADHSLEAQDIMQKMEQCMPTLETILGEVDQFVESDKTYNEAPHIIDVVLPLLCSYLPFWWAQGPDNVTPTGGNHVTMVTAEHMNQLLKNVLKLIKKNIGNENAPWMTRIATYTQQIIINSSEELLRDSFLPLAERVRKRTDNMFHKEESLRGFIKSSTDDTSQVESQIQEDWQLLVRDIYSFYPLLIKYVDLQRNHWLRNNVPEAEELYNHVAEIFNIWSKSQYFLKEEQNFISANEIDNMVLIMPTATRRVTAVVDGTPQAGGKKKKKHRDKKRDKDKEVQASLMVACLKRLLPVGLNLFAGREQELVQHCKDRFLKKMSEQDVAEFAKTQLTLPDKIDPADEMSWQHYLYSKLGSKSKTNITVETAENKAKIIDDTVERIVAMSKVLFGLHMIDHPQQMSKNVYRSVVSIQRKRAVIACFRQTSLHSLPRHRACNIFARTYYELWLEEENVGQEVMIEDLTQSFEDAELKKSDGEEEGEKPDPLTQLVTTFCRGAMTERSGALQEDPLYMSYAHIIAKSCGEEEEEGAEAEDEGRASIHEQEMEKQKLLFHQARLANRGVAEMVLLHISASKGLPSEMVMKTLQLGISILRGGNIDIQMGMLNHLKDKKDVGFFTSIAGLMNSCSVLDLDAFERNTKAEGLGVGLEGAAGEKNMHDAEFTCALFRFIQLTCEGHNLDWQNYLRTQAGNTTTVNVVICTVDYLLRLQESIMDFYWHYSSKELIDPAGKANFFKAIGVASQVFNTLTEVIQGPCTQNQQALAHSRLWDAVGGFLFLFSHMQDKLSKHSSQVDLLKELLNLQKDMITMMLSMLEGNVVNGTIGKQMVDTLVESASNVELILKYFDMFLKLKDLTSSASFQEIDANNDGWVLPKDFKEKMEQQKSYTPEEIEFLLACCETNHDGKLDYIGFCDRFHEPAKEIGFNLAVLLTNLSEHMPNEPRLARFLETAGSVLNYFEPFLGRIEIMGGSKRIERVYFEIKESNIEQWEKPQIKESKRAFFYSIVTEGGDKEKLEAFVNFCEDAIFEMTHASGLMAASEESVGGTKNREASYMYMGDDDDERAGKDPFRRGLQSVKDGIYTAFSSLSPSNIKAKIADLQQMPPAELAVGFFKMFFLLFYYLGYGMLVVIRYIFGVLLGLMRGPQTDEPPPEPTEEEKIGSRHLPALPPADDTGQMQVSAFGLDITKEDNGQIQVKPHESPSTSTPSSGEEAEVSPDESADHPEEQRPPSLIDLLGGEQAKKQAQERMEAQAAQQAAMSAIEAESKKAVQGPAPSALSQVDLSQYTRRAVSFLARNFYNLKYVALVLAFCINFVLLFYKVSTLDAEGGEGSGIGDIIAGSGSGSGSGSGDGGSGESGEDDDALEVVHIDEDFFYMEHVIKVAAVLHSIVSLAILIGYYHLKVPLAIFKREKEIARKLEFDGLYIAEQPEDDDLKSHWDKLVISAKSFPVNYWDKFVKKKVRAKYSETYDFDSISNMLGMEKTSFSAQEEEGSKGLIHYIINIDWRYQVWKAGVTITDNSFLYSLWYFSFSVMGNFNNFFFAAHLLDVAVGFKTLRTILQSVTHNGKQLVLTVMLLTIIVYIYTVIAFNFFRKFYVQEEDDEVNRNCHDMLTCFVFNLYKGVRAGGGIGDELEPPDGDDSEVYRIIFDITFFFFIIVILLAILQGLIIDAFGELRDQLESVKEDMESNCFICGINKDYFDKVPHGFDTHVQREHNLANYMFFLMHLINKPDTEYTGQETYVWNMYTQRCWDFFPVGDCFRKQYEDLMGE

CNC(=O)c1cc(Cl)cc(C)c1NC(=O)c1cc(Br)nn1-c1ncccc1Cl [chlo, chlorantraniliprole]
time-lapse R-CEPIA1er [Ca2+]ER measurement in HEK cells stably expressing sfRyR: their effect in intracellular Ca2 release is similar to that of the positive control chlo
